Each structure is given as a SMILES string.

Experimental findings from patent publication US6423689B1, “Peptidyl calcium channel blockers” (Warner-Lambert Company, priority 1997, dated 2002) are described below.

T1 sequence (Q00975 whole entry): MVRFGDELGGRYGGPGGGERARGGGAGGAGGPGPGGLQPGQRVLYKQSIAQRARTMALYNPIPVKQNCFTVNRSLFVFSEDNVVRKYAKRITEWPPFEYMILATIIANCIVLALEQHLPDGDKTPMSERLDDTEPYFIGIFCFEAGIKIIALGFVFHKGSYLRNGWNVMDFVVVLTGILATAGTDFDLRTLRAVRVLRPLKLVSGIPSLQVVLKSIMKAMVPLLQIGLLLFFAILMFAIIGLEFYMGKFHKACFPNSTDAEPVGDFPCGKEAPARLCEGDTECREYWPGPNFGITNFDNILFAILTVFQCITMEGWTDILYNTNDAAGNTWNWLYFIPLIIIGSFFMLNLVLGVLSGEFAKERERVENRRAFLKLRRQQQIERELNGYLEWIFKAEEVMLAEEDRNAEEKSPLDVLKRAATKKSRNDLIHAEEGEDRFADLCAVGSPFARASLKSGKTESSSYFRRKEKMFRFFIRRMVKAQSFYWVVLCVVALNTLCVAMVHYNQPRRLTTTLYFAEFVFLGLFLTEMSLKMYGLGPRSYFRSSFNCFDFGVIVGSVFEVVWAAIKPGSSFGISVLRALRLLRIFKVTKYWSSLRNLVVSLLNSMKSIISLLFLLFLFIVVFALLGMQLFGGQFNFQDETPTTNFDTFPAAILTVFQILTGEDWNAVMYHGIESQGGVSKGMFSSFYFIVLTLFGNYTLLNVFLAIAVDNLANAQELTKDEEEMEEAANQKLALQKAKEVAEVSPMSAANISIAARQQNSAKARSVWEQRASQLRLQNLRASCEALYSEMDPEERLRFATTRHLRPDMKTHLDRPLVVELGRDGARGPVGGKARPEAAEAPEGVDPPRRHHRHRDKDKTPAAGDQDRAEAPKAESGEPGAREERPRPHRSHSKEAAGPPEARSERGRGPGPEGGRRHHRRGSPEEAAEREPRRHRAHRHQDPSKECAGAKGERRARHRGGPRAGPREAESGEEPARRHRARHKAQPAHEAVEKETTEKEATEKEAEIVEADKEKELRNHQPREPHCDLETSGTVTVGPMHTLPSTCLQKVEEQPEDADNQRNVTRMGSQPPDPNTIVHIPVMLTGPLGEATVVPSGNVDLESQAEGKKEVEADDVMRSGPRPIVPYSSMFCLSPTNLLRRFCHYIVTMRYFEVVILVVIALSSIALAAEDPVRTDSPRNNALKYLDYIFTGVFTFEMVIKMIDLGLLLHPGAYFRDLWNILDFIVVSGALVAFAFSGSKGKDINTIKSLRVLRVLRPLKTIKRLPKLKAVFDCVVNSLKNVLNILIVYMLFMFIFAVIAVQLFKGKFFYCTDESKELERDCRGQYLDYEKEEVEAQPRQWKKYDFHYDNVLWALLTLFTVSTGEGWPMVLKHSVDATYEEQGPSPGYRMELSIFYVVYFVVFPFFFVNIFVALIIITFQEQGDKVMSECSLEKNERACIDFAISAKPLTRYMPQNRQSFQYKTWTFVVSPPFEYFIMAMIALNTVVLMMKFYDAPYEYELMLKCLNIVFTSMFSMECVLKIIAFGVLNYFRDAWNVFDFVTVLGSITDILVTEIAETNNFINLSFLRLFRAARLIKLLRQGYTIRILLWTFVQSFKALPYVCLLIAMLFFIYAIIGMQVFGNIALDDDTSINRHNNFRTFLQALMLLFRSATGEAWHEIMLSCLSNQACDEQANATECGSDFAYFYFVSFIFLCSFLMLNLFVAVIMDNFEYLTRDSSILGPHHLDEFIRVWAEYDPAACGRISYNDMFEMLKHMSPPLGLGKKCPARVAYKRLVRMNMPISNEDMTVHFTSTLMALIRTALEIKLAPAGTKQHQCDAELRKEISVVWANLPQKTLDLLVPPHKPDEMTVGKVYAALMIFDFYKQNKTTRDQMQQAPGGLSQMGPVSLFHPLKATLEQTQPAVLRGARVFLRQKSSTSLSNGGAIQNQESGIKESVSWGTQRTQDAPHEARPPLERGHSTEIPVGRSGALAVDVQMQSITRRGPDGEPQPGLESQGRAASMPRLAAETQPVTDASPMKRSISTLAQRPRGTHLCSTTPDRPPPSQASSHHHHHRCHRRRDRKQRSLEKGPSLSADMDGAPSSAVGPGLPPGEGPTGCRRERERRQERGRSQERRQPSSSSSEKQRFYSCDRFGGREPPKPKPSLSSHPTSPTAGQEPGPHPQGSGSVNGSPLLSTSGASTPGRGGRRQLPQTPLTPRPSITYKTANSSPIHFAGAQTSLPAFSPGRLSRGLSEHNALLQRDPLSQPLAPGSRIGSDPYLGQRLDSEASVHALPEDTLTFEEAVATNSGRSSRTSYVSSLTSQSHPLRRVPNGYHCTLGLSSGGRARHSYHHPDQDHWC
T1 sequence (P54289 25-956 partner limits assumed): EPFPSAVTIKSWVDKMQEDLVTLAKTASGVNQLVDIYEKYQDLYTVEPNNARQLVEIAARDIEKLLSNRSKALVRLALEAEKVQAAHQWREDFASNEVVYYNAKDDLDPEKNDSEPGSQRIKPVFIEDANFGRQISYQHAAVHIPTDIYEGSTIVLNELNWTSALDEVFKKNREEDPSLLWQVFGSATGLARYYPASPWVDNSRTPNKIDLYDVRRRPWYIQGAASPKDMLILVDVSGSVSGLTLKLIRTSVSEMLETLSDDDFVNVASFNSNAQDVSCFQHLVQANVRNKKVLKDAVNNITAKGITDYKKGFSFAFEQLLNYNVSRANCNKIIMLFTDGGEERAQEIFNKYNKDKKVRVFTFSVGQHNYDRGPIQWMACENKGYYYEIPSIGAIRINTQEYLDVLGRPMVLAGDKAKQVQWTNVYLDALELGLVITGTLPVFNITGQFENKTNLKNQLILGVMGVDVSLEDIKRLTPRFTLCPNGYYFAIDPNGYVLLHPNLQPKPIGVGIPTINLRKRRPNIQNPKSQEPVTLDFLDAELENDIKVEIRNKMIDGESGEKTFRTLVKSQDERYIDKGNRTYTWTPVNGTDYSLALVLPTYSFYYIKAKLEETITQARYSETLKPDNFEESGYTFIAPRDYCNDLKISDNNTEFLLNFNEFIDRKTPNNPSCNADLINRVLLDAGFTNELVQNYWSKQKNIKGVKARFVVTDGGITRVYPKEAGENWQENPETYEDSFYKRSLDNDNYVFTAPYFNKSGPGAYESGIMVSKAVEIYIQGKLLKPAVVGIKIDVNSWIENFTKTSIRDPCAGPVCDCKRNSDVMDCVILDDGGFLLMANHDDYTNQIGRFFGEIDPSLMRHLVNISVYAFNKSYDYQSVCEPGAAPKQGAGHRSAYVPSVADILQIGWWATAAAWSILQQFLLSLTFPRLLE
T1 sequence (P54289 957-1103 partner limits assumed): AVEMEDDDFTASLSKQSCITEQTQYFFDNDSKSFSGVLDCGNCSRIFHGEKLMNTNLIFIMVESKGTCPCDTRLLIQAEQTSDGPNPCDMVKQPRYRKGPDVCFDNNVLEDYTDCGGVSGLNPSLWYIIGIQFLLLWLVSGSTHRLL
T1 sequence (P54284 whole entry partner): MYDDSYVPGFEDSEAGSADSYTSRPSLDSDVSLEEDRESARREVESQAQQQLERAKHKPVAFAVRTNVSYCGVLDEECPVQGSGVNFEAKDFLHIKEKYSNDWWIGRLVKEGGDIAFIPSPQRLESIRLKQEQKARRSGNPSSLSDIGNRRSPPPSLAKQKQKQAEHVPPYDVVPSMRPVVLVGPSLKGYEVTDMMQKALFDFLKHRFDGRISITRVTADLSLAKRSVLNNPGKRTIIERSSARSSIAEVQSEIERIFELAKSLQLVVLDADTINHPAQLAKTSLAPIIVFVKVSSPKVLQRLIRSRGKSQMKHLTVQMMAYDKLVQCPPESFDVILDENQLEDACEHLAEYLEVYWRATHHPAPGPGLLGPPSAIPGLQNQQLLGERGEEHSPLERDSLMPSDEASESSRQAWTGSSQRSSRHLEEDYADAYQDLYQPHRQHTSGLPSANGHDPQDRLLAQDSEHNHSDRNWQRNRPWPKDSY

One assay concerns the target T1, N-type Ca2+ channels in IMR-32 cells (Homo sapiens, UniProt Q00975).
T1 construct: host or cells: IMR-32 cells, differentiated with dibutyryl cAMP and bromodeoxyuridine
In words: Inhibition of N-type calcium flux in IMR-32 cells (Indo-1 fluorescence, nitrendipine present). The settings on record: 1 μM. Format: cell-based. An outline of the steps:
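With L-type flux blocked by 5 μM nitrendipine, N-type Ca2+ entry was read as the Indo-1 emission ratio (400/490 nm, excitation 350 nm) at 30° C after KCl depolarization.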
In general terms: A change in cytosolic calcium serves as a functional read-out for many receptors and channels.
With `CC(C)C[C@H](NC(=O)Nc1ccc(Cl)cc1)C(=O)N[C@@H](Cc1ccc(OCc2ccccc2)cc1)C(=O)OC(C)(C)C` (relative stereo) [Example 80, [S-(R*,R*)]-3-(4-Benzyloxy-phenyl)-2-{2-[3-(4-chloro-phenyl)-ureido]-4-methyl-pentanoylamino}-propionic acid tert-butyl ester], the “Inhibition of Calcium Flux in IMR-32 Cells % Inhibition at 1 μM” value is given as 40%.

Regarding `CC(C)C[C@H](NC(=O)Nc1cccc(Cl)c1Cl)C(=O)N[C@@H](Cc1ccc(OCc2ccccc2)cc1)C(=O)OC(C)(C)C` (relative stereo) [Example 81, [S-(R*,R*)]-3-(4-Benzyloxy-phenyl)-2-{2-[3-(2,3-dichloro-phenyl)-ureido]-4-methyl-pentanoylamino}-propionic acid tert-butyl ester], the “Inhibition of Calcium Flux in IMR-32 Cells % Inhibition at 1 μM” value came out at 32%.

For `CC(C)C[C@H](NC(=O)Nc1ccc(Cl)cc1Cl)C(=O)N[C@@H](Cc1ccc(OCc2ccccc2)cc1)C(=O)OC(C)(C)C` (relative stereo) [Example 82, [S-(R*,R*)]-3-(4-Benzyloxy-phenyl)-2-{2-[3-(2,4-dichloro-phenyl)-ureido]-4-methyl-pentanoylamino}-propionic acid tert-butyl ester], the “Inhibition of Calcium Flux in IMR-32 Cells % Inhibition at 1 μM” value stood at 55%.

Turning to `CC(C)C[C@H](NC(=O)Nc1cc(C(F)(F)F)cc(C(F)(F)F)c1)C(=O)N[C@@H](Cc1ccc(OCc2ccccc2)cc1)C(=O)OC(C)(C)C` (relative stereo) [Example 83, [S-(R*,R*)]-3-(4-Benzyloxy-phenyl)-2-{2-[3-(3,5-bis-trifluoromethyl-phenyl)-ureido]-4-methyl-pentanoylamino}-propionic acid tert-butyl ester], the “Inhibition of Calcium Flux in IMR-32 Cells % Inhibition at 1 μM” value is listed as 19%.

With `CC(C)C[C@H](NC(=O)Nc1ccc(Br)cc1)C(=O)N[C@@H](Cc1ccc(OCc2ccccc2)cc1)C(=O)OC(C)(C)C` (relative stereo) [Example 84, [S-(R*,R*)]-3-(4-Benzyloxy-phenyl)-2-{2-[3-(^4-bromo-phenyl)-ureido]-4-methyl-pentanoylamino}-propionic acid tert-butyl ester], the “Inhibition of Calcium Flux in IMR-32 Cells % Inhibition at 1 μM” value is 49%.

With `CC(C)C[C@H](NC(=O)Nc1ccc(Cl)c(Cl)c1)C(=O)N[C@@H](Cc1ccc(OCc2ccccc2)cc1)C(=O)OC(C)(C)C` (relative stereo) [Example 85, [S-(R*,R*)]-3-(4-Benzyloxy-phenyl)-2-{2-[3-(3,4-dichloro-phenyl)-ureido]-4-methyl-pentanoylamino}-propionic acid tert-butyl ester], the “Inhibition of Calcium Flux in IMR-32 Cells % Inhibition at 1 μM” value was found to be 30%.

On to `CC(C)C[C@H](NC(=O)Nc1cc(Cl)cc(Cl)c1)C(=O)N[C@@H](Cc1ccc(OCc2ccccc2)cc1)C(=O)OC(C)(C)C` (relative stereo) [Example 86, [S-(R*,R*)]-3-(4-Benzyloxy-phenyl)-2-{2-[3-(3,5-dichloro-phenyl)-ureido]-4-methyl-pentanoylamino}-propionic acid tert-butyl ester], for which the “Inhibition of Calcium Flux in IMR-32 Cells % Inhibition at 1 μM” value came out at 40%.

Regarding `CC(C)C[C@H](NC(=O)NC(C)C)C(=O)N[C@@H](Cc1ccc(OCc2ccccc2)cc1)C(=O)OC(C)(C)C` (relative stereo) [Example 87, [S-(R*,R*)]-3-(4-Benzyloxy-phenyl)-2-[2-(3-isopropyl-ureido)-4-methyl-pentanoylamino]-propionic acid tert-butyl ester], the “Inhibition of Calcium Flux in IMR-32 Cells % Inhibition at 1 μM” value turned out to be 37%.

Consider `CNC(=O)N[C@@H](CC(C)C)C(=O)N[C@@H](Cc1ccc(OCc2ccccc2)cc1)C(=O)OC(C)(C)C` (relative stereo) [Example 88, [S-(R*,R*)]-3-(4-Benzyloxy-phenyl)-2-[4-methyl-2-(3-methyl-ureido)-pentanoylamino]-propionic acid tert-butyl ester], for which the “Inhibition of Calcium Flux in IMR-32 Cells % Inhibition at 1 μM” value is recorded as 30%.

Consider `CCNC(=O)N[C@@H](CC(C)C)C(=O)N[C@@H](Cc1ccc(OCc2ccccc2)cc1)C(=O)OC(C)(C)C` (relative stereo) [Example 89, [S-(R*,R*)]-3-(4-Benzyloxy-phenyl)-2-[2-(3-ethyl-ureido)-4-methyl-pentanoylamino]-propionic acid tert-butyl ester], for which the “Inhibition of Calcium Flux in IMR-32 Cells % Inhibition at 1 μM” value worked out at 30%.

`CC(C)C[C@H](NC(=O)c1ccco1)C(=O)C[C@H](Cc1ccc(OCc2ccccc2)cc1)C(=O)OC(C)(C)C` (relative stereo) [Example 90, [S-(R*,R*)]-2-(4-Benzyloxy-benzyl)-5-[(furan-2-carbonyl)-amino]-7-methyl-4-oxo-octanoic acid tert-butyl ester]: the “Inhibition of Calcium Flux in IMR-32 Cells % Inhibition at 1 μM” value stood at 37%.

For `CCOc1ccc(C(=O)N[C@@H](CC(C)C)C(=O)N[C@@H](Cc2ccc(OCc3ccccc3)cc2)C(=O)OC(C)(C)C)cc1` (relative stereo) [Example 91, [S-(R*,R*)]-3-(4-Benzyloxy-phenyl)-2-[2-(4-ethoxy-benzoylamino)-4-methyl-pentanoylamino]-propionic acid tert-butyl ester], the “Inhibition of Calcium Flux in IMR-32 Cells % Inhibition at 1 μM” value amounted to 34%.

With `CC(C)C[C@H](NC(=O)c1ccc(C(C)(C)C)cc1)C(=O)N[C@@H](Cc1ccc(OCc2ccccc2)cc1)C(=O)OC(C)(C)C` (relative stereo) [Example 93, [S-(R*,R*)]-3-(4-Benzyloxy-phenyl)-2-[2-(4-tert-butyl-benzoylamino)-4-methyl-pentanoylamino]-propionic acid tert-butyl ester], the “Inhibition of Calcium Flux in IMR-32 Cells % Inhibition at 1 μM” value is listed as 17%.

Regarding `CC(C)C[C@H](NC(=O)c1ccc(F)cc1)C(=O)N[C@@H](Cc1ccc(OCc2ccccc2)cc1)C(=O)OC(C)(C)C` (relative stereo) [Example 94, [S-(R*,R*)]-3-(4-Benzyloxy-phenyl)-2-[2-(4-fluoro-benzoylamino)-4-methyl-pentanoylamino]-propionic acid tert-butyl ester], the “Inhibition of Calcium Flux in IMR-32 Cells % Inhibition at 1 μM” value is recorded as 29%.

In the case of `COc1ccc(C(=O)N[C@@H](CC(C)C)C(=O)N[C@@H](Cc2ccc(OCc3ccccc3)cc2)C(=O)OC(C)(C)C)cc1` (relative stereo) [Example 95, [S-(R*,R*)]-3-(4-Benzyloxy-phenyl)-2-[2-(4-methoxy-benzoylamino)-4-methyl-pentanoylamino]-propionic acid tert-butyl ester], the “Inhibition of Calcium Flux in IMR-32 Cells % Inhibition at 1 μM” value is recorded as 27%.

For the compound `COc1cccc(C(=O)N[C@@H](CC(C)C)C(=O)N[C@@H](Cc2ccc(OCc3ccccc3)cc2)C(=O)OC(C)(C)C)c1` (relative stereo) [Example 96, [S-(R*,R*)]-3-(4-Benzyloxy-phenyl)-2-[2-(3-methoxy-benzoylamino)-4-methyl-pentanoylamino]-propionic acid tert-butyl ester], the “Inhibition of Calcium Flux in IMR-32 Cells % Inhibition at 1 μM” value was determined as 33%.

Consider `CC(C)C[C@H](NC(=O)c1ccc2c(c1)OCO2)C(=O)N[C@@H](Cc1ccc(OCc2ccccc2)cc1)C(=O)OC(C)(C)C` (relative stereo) [Example 97, [S-(R*,R*)]-2-{2-[(Benzo[1,3]dioxole-5-carbonyl)-amino]-4-methyl-pentanoylamino}-3-(4-benzyloxy-phenyl)-propionic acid tert-butyl ester], for which the “Inhibition of Calcium Flux in IMR-32 Cells % Inhibition at 1 μM” value is on record as 30%.

In the case of `COc1ccccc1C(=O)N[C@@H](CC(C)C)C(=O)N[C@@H](Cc1ccc(OCc2ccccc2)cc1)C(=O)OC(C)(C)C` (relative stereo) [Example 98, [S-(R*,R*)]-3-(4-Benzyloxy-phenyl)-2-[2-(2-methoxy-benzoylamino)-4-methyl-pentanoylamino]-propionic acid tert-butyl ester], the “Inhibition of Calcium Flux in IMR-32 Cells % Inhibition at 1 μM” value is given as 34%.

For `CC(C)C[C@H](NC(=O)c1ccc2ccccc2c1)C(=O)N[C@@H](Cc1ccc(OCc2ccccc2)cc1)C(=O)OC(C)(C)C` (relative stereo) [Example 99, [S-(R*,R*)]-3-(4-Benzyloxy-phenyl)-2-{4-methyl-2-[(naphthalene-2-carbonyl)-amino]pentanoylamino}-propionic acid tert-butyl ester], the “Inhibition of Calcium Flux in IMR-32 Cells % Inhibition at 1 μM” value turned out to be 19%.

`COc1ccc(C(=O)N[C@@H](CC(C)C)C(=O)N[C@@H](Cc2ccc(OCc3ccccc3)cc2)C(=O)OC(C)(C)C)cc1OC` (relative stereo) [Example 100, [S-(R*,R*)]-3-(4-Benzyloxy-phenyl)-2-[2-(3,4-dimethoxy-benzoylamino)-4-methyl-pentanoylamino]-propionic acid tert-butyl ester]: the “Inhibition of Calcium Flux in IMR-32 Cells % Inhibition at 1 μM” value was 18%.

With `COc1ccc(S(=O)(=O)N[C@@H](CC(C)C)C(=O)N[C@@H](Cc2ccc(OCc3ccccc3)cc2)C(=O)OC(C)(C)C)cc1` (relative stereo) [Example 103, [S-(R*,R*)]-3-(4-Benzyloxy-phenyl)-2-[2-(4-methoxy-benzenesulfonylamino)-4-methyl-pentanoylamino]-propionic acid tert-butyl ester], the “Inhibition of Calcium Flux in IMR-32 Cells % Inhibition at 1 μM” value is listed as 28%.

As for `CC(C)C[C@H](NS(=O)(=O)c1ccc(F)cc1)C(=O)N[C@@H](Cc1ccc(OCc2ccccc2)cc1)C(=O)OC(C)(C)C` (relative stereo) [Example 104, [S-(R*,R*)]-3-(4-Benzyloxy-phenyl)-2-[2-(4-fluoro-benzenesulfonylamino)-4-methyl-pentanoylamino]-propionic acid tert-butyl ester], the “Inhibition of Calcium Flux in IMR-32 Cells % Inhibition at 1 μM” value came out at 35%.

Still in this assay, the particulars now being: 10 μM.
For `CC(C)C[C@H](NC(=O)c1ccco1)C(=O)C[C@H](Cc1ccc(OCc2ccccc2)cc1)C(=O)OC(C)(C)C` (relative stereo) [Example 90, [S-(R*,R*)]-2-(4-Benzyloxy-benzyl)-5-[(furan-2-carbonyl)-amino]-7-methyl-4-oxo-octanoic acid tert-butyl ester], the “Inhibition of Calcium Flux in IMR-32 Cells % Inhibition at 10 μM” value turned out to be 83%.

Regarding `CCOc1ccc(C(=O)N[C@@H](CC(C)C)C(=O)N[C@@H](Cc2ccc(OCc3ccccc3)cc2)C(=O)OC(C)(C)C)cc1` (relative stereo) [Example 91, [S-(R*,R*)]-3-(4-Benzyloxy-phenyl)-2-[2-(4-ethoxy-benzoylamino)-4-methyl-pentanoylamino]-propionic acid tert-butyl ester], the “Inhibition of Calcium Flux in IMR-32 Cells % Inhibition at 10 μM” value was 48%.

Consider `CC(C)C[C@H](NS(=O)(=O)c1cccc2nsnc12)C(=O)C[C@H](Cc1ccc(OCc2ccccc2)cc1)C(=O)OC(C)(C)C` (relative stereo) [Example 102, [S-(R*,R*)]-5-(Benzo[1,2,5]thiadiazole-4-sulfonylamino)-2-(4-benzyloxybenzyl)-7-methyl-4-oxo-octanoic acid tert-butyl ester], for which the “Inhibition of Calcium Flux in IMR-32 Cells % Inhibition at 10 μM” value is 75%.
